The values below come from patent US7501397B2, “Helical peptidomimetics with enhanced activity” (The Brigham and Women's Hospital, Inc., priority 2004, dated 2009).

Non-standard residues stand in square brackets, D forms with d. Residues, ends and D or L forms follow the SMILES beside them. *: point of attachment. Boc = CC(C)(C)OC(=O)*; Aib = CC(C)(N)C(=O)O; Bn = c1ccc(C*)cc1

This assay has as its target γ-secretase (Homo sapiens, UniProt P49768). The experiment in a line: cell-free γ-secretase assay using detergent-solubilized membranes from HeLa cells and a recombinant APP-based substrate. Further details: detergent-solubilized membranes from HeLa cells; endogenous in cells; host or cells: HeLa cells (detergent-solubilized membranes). The class given is biochemical. The settings on record: for IC50: 50% inhibition of Aβ40 production, at least three independent experiments, read-out: Cell-free Assay IC50. The method, then: Compounds were tested in a γ-secretase assay using detergent-solubilized membranes from HeLa cells and a recombinant APP-based substrate (Table 2, 18). […] Moreover, the γ-secretase inhibition appears to show dependence on length.

The IC50 is the midpoint of a concentration-inhibition curve. Turning to `CC[C@H](C)[C@H](NC(=O)[C@@H](NC(=O)[C@@H](NC(=O)C(C)(C)NC(=O)CNC(=O)[C@@H](NC(=O)OC(C)(C)C)C(C)C)C(C)C)C(C)C)C(=O)NC(C)(C)C(=O)N[C@H](C(=O)N[C@H](C(=O)NC(C)(C)C(=O)N[C@H](C(=O)N[C@H](C(=O)NC(C)(C)C(=O)OC)[C@@H](C)CC)C(C)C)C(C)C)[C@@H](C)OCc1ccccc1` [SEQ ID NO:18 L-peptide, Boc-Val-Gly-Aib-Val-Val-Ile-Aib-Thr(OBz)-Val-Aib-Val-Ile-Aib-OMe] (Boc-VG[Aib]VVI[Aib]T(Bn)V[Aib]VI[Aib]-OMe), the IC50 is 780 nM. The “increase in potency over the reference L-decapeptide having SEQ ID NO:10” value (L-series, cell-free assay) is around 40 fold.

Regarding `CC[C@@H](C)[C@@H](NC(=O)[C@H](NC(=O)[C@H](NC(=O)C(C)(C)NC(=O)CNC(=O)[C@H](NC(=O)C(C)(C)NC(=O)OC(C)(C)C)C(C)C)C(C)C)C(C)C)C(=O)NC(C)(C)C(=O)N[C@@H](C(=O)N[C@@H](C(=O)NC(C)(C)C(=O)N[C@@H](C(=O)N[C@@H](C(=O)NC(C)(C)C(=O)OC)[C@H](C)CC)C(C)C)C(C)C)[C@H](C)OCc1ccccc1` [SEQ ID NO:19 D-peptide, Boc-Aib-Val-Gly-Aib-Val-Val-Ile-Aib-Thr(OBz)-Val-Aib-Val-Ile-Aib-OMe] (Boc-[Aib][dV]G[Aib][dV][dV][dI][Aib][dT](Bn)[dV][Aib][dV][dI][Aib]-OMe), the IC50 amounted to 14 ± 10 nM.

On to `CC[C@H](C)[C@H](NC(=O)[C@@H](NC(=O)[C@@H](NC(=O)C(C)(C)NC(=O)CNC(=O)[C@@H](NC(=O)C(C)(C)NC(=O)OC(C)(C)C)C(C)C)C(C)C)C(C)C)C(=O)NC(C)(C)C(=O)N[C@H](C(=O)N[C@H](C(=O)NC(C)(C)C(=O)N[C@H](C(=O)N[C@H](C(=O)NC(C)(C)C(=O)OC)[C@@H](C)CC)C(C)C)C(C)C)[C@@H](C)OCc1ccccc1` [SEQ ID NO:19 L-peptide, Boc-Aib-Val-Gly-Aib-Val-Val-Ile-Aib-Thr(OBz)-Val-Aib-Val-Ile-Aib-OMe] (Boc-[Aib]VG[Aib]VVI[Aib]T(Bn)V[Aib]VI[Aib]-OMe), for which the IC50 was found to be 910 ± 170 nM.

Regarding `CC[C@@H](C)[C@@H](NC(=O)[C@H](NC(=O)[C@H](NC(=O)C(C)(C)NC(=O)CNC(=O)[C@H](NC(=O)C(C)(C)NC(=O)[C@@H](CC(C)C)NC(=O)OC(C)(C)C)C(C)C)C(C)C)C(C)C)C(=O)NC(C)(C)C(=O)N[C@@H](C(=O)N[C@@H](C(=O)NC(C)(C)C(=O)N[C@@H](C(=O)N[C@@H](C(=O)NC(C)(C)C(=O)OC)[C@H](C)CC)C(C)C)C(C)C)[C@H](C)OCc1ccccc1` [SEQ ID NO:20 D-peptide, Boc-Leu-Aib-Val-Gly-Aib-Val-Val-Ile-Aib-Thr(OBz)-Val-Aib-Val-Ile-Aib-OMe] (Boc-[dL][Aib][dV]G[Aib][dV][dV][dI][Aib][dT](Bn)[dV][Aib][dV][dI][Aib]-OMe), the IC50 was found to be 16 ± 7 nM.

In the case of `CC[C@H](C)[C@H](NC(=O)[C@@H](NC(=O)[C@@H](NC(=O)C(C)(C)NC(=O)CNC(=O)[C@@H](NC(=O)C(C)(C)NC(=O)[C@H](CC(C)C)NC(=O)OC(C)(C)C)C(C)C)C(C)C)C(C)C)C(=O)NC(C)(C)C(=O)N[C@H](C(=O)N[C@H](C(=O)NC(C)(C)C(=O)N[C@H](C(=O)N[C@H](C(=O)NC(C)(C)C(=O)OC)[C@@H](C)CC)C(C)C)C(C)C)[C@@H](C)OCc1ccccc1` [SEQ ID NO:20 L-peptide, Boc-Leu-Aib-Val-Gly-Aib-Val-Val-Ile-Aib-Thr(OBz)-Val-Aib-Val-Ile-Aib-OMe] (Boc-L[Aib]VG[Aib]VVI[Aib]T(Bn)V[Aib]VI[Aib]-OMe), the IC50 was 4700 nM.
